Data as given in US4965280A, “Antifungal carbinols” (E. I. Du Pont de Nemours and Company, priority 1989, dated 1990).
In brackets after ≈: the same amount, converted by molar mass. Read-outs that look alike come from different tables or passages of the source.

Assays:
SCIRPUS = assay: Test C rice paddy; format: in vivo, Scirpus paludosus; conditions: Bolboschoenus maritimus, 504 h, 21 days, read-out: plant response; for pest or weed control at 64 g/ha: 0064 G/HA; for pest or weed control at 125 g/ha: 0125 G/HA; for pest or weed control at 250 g/ha: 0250 G/HA; for pest or weed control at 500 g/ha: 0500 G/HA
Excerpt: (§1) Sixteen cm diameter Airlite plastic pots were partially filled with Tama slit loam soil and the soil saturated with water. Japonica and Indica rice seedlings a the 2.0 to 2.5 leaf stage were transplanted into 1/3 of the pots. Into another third of the pots were transplanted seedling or sprouted tubers of water plantain (Alisma trivale), Scripus (Scirpus paludosus), Cyperus (Cyperus esculentus), and arrowhead (Sagittaria spp.). The remaining pots were planted with barnyardgrass (Echinochloa crusgalli) seeds and sprouted tubes of water chestnut (Eleocharis spp.). These weeds all represent major rice weeds or genera of weeds important in rice. Three to four days after planting, the water level was raised to 3 cm (about 1200 ml/pot) and maintained a this level throughout the test. Chemical treatments were applied directly to the paddy water, within 24 hours of raising the water, after being formulated in a nonphytotoxic solvent. The pots were maintained in the greenhouse.

FALL PANICUM = assay: Test D; format: in vivo, Panicum dichotomiflorum
Plasmorpara viticola = assay: Example I grape downy mildew; format: in vivo; conditions: read-out: disease control rating, Ex. I
Procedure, shortened: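 Applied as a foliar spray to run-off on grape seedlings, the compounds were formulated at 100 or 20 ppm in water containing 250 ppm TREM 014, with acetone making up 6% of the volume.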

G4646 CORN = assay: Test D Corn and Sorghum Herbicide Test; format: in vivo, Zea mays
Pythium aphanadermatum = assay: Example J cucumber damping off; format: in vivo; conditions: Pythium, 336 h; 5 kg/ha; read-out: disease control rating, Ex. J
Procedure, shortened: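 This cucumber damping-off test used soil and seeds infested with a sand–cereal preparation carrying mycelium of Pythium aphanadermatum. Incubation took place in a growth chamber held at 30° C. for 14 days. Afterwards, the extent of disease was scored as a disease control rating.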

[1] = system: Aspergillus fumigatus ATCC 28214; assay: In vitro antifungal MIC, microtiter broth dilution; conditions: Aspergillus fumigatus, ATCC28214, 24 h, read-out: MIC values, A. fumigatus, 30°, 24 hours
WATER PLAINTAIN = assay: Test C rice paddy; format: in vivo, Alisma trivale; conditions: 504 h, 21 days, read-out: plant response; for pest or weed control at 64 g/ha: 0064 G/HA; for pest or weed control at 125 g/ha: 0125 G/HA; for pest or weed control at 250 g/ha: 0250 G/HA; for pest or weed control at 500 g/ha: 0500 G/HA
Excerpt: as §1

[2] = system: Candida albicans ATCC 11651; assay: In vivo systemic Candida infection in mice, primary assay; parameters: species or system Candida albicans; CF-1 female mice; conditions: Candida albicans, 150 mg/kg per day, read-out: % Survival
Procedure, shortened: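 CF-1 female mice (20 g, 10 per group) were infected IV with 0.2 ml of 1×10^7/ml C. albicans ATCC 11651, then given test compound subcutaneously at 50 or 150 mg/kg/day at 1 and 6 h post-infection and once daily for three more days. Survival was followed for 21 days against infected untreated mice; ≥70% protection at 14 days was scored active.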

LAMBSQUARTER = assay: Test D; format: in vivo, Chenopodium album
Pyricularia oryzae = assay: whole plant or invertebrate; format: in vivo; conditions: Pyricularia oryzae, 120 h; for pest or weed control at 100 ppm: read-out: disease control rating, Ex. E, 100 PPM
JIMSONWEED = assay: Test D; format: in vivo, Datura stramonium

For `C=C(c1ccccc1Cl)C(O)(Cn1cncn1)c1ccc(Cl)cc1Cl` (stereo not drawn) [Example 33, 2-(2,4-Dichlorophenyl)-3-(2-chlorophenyl)-1-(1H-1,2,4-triazol-1-yl)-3-buten-2-ol], the pest or weed control at 64 g/ha (SCIRPUS) was 0%, the pest or weed control at 125 g/ha (SCIRPUS) was 0% and the pest or weed control at 250 g/ha (SCIRPUS) was 0%. The pest or weed control at 500 g/ha (SCIRPUS) was 0%, the pest or weed control at 1000 g/ha (SCIRPUS) was 0% and the plant response (FALL PANICUM; POSTEMERGENCE 0250 GM/HA) was 0%. For the same compound, the plant response (FALL PANICUM; POSTEMERGENCE 0500 GM/HA) was 0%, the plant response (FALL PANICUM; POSTEMERGENCE 1000 GM/HA) was 0% and the plant response (FALL PANICUM; PREEMERGENCE 0250 GM/HA) was 0%. For the same compound, the plant response (FALL PANICUM; PREEMERGENCE 0500 GM/HA) was 0%, the plant response (FALL PANICUM; PREEMERGENCE 1000 GM/HA) was 0% and the pest or weed control at 100 ppm (Plasmorpara viticola) was 24%. It also gave a plant response (G4646 CORN; POSTEMERGENCE 0250 GM/HA) of 0%, a plant response (G4646 CORN; POSTEMERGENCE 0500 GM/HA) of 0% and a plant response (G4646 CORN; POSTEMERGENCE 1000 GM/HA) of 0%. For the same compound, the plant response (G4646 CORN; PREEMERGENCE 0250 GM/HA) was 0%, the plant response (G4646 CORN; PREEMERGENCE 0500 GM/HA) was 0% and the plant response (G4646 CORN; PREEMERGENCE 1000 GM/HA) was 0%. For the same compound, the pest or weed control at 5000 g/ha (Pythium aphanadermatum) was 0%, the MIC [1] was 0.03 µg/mL (≈ 0.076 µM) and the pest or weed control at 64 g/ha (WATER PLAINTAIN) was 0%. The pest or weed control at 125 g/ha (WATER PLAINTAIN) was 0%, the pest or weed control at 250 g/ha (WATER PLAINTAIN) was 0% and the pest or weed control at 500 g/ha (WATER PLAINTAIN) was 0%. The pest or weed control at 1000 g/ha (WATER PLAINTAIN) was 0%, the responders at 150 mg/kg ([2]; ATCC11651, 168 h, day 7) was 100% and the responders at 150 mg/kg ([2]; ATCC11651, 336 h, day 14) was 100%. The responders at 150 mg/kg ([2]; ATCC11651, 504 h, day 21) was 100%, the plant response (LAMBSQUARTER; POSTEMERGENCE 0250 GM/HA) was 0% and the plant response (LAMBSQUARTER; POSTEMERGENCE 0500 GM/HA) was 0%. For the same compound, the plant response (LAMBSQUARTER; POSTEMERGENCE 1000 GM/HA) was 0%, the plant response (LAMBSQUARTER; PREEMERGENCE 0250 GM/HA) was 0% and the plant response (LAMBSQUARTER; PREEMERGENCE 0500 GM/HA) was 0%. For the same compound, the plant response (LAMBSQUARTER; PREEMERGENCE 1000 GM/HA) was 0%, the pest or weed control at 20 ppm (Pyricularia oryzae; read-out: disease control rating, Ex. E, 20 PPM) was 0% and the pest or weed control at 100 ppm (Pyricularia oryzae) was 0%. For the same compound, the plant response (JIMSONWEED; POSTEMERGENCE 0250 GM/HA) was 0%, the plant response (JIMSONWEED; POSTEMERGENCE 0500 GM/HA) was 0% and the plant response (JIMSONWEED; POSTEMERGENCE 1000 GM/HA) was 0%. It also gave a plant response (JIMSONWEED; PREEMERGENCE 0250 GM/HA) of 0%, a plant response (JIMSONWEED; PREEMERGENCE 0500 GM/HA) of 0% and a plant response (JIMSONWEED; PREEMERGENCE 1000 GM/HA) of 0%.

`C=C(c1ccccc1Cl)C(O)(Cn1cncn1)c1ccc(F)cc1F` (stereo not drawn) [Example 35] gave a pest or weed control at 64 g/ha (SCIRPUS) of 0%, a pest or weed control at 125 g/ha (SCIRPUS) of 0% and a pest or weed control at 250 g/ha (SCIRPUS) of 0%. For the same compound, the pest or weed control at 500 g/ha (SCIRPUS) was 0%, the pest or weed control at 1000 g/ha (SCIRPUS) was 50% and the plant response (FALL PANICUM; PREEMERGENCE 0064 GM/HA) was 0%. The plant response (FALL PANICUM; PREEMERGENCE 0125 GM/HA) was 50%, the plant response (FALL PANICUM; PREEMERGENCE 0250 GM/HA) was 80% and the plant response (FALL PANICUM; PREEMERGENCE 0500 GM/HA) was 100%. It also gave a pest or weed control at 100 ppm (Plasmorpara viticola) of 26%, a plant response (G4646 CORN; POSTEMERGENCE 0250 GM/HA) of 0% and a plant response (G4646 CORN; POSTEMERGENCE 0500 GM/HA) of 0%. It also gave a plant response (G4646 CORN; PREEMERGENCE 0064 GM/HA) of 0%, a plant response (G4646 CORN; PREEMERGENCE 0125 GM/HA) of 0% and a plant response (G4646 CORN; PREEMERGENCE 0250 GM/HA) of 0%. For the same compound, the plant response (G4646 CORN; PREEMERGENCE 0500 GM/HA) was 0%, the pest or weed control at 5000 g/ha (Pythium aphanadermatum) was 0% and the MIC [1] was 0.1 µg/mL (≈ 0.276 µM). The pest or weed control at 64 g/ha (WATER PLAINTAIN) was 0%, the pest or weed control at 125 g/ha (WATER PLAINTAIN) was 0% and the pest or weed control at 250 g/ha (WATER PLAINTAIN) was 40%. For the same compound, the pest or weed control at 500 g/ha (WATER PLAINTAIN) was 40%, the pest or weed control at 1000 g/ha (WATER PLAINTAIN) was 60% and the responders at 150 mg/kg ([2]; ATCC11651, 168 h, day 7) was 100%. For the same compound, the responders at 150 mg/kg ([2]; ATCC11651, 336 h, day 14) was 100%, the responders at 150 mg/kg ([2]; ATCC11651, 504 h, day 21) was 90% and the plant response (LAMBSQUARTER; POSTEMERGENCE 0250 GM/HA) was 0%. The plant response (LAMBSQUARTER; POSTEMERGENCE 0500 GM/HA) was 20%, the plant response (LAMBSQUARTER; PREEMERGENCE 0064 GM/HA) was 30% and the plant response (LAMBSQUARTER; PREEMERGENCE 0125 GM/HA) was 30%. The plant response (LAMBSQUARTER; PREEMERGENCE 0250 GM/HA) was 60%, the plant response (LAMBSQUARTER; PREEMERGENCE 0500 GM/HA) was 80% and the pest or weed control at 100 ppm (Pyricularia oryzae) was 0%. It also gave a plant response (JIMSONWEED; POSTEMERGENCE 0250 GM/HA) of 20%, a plant response (JIMSONWEED; POSTEMERGENCE 0500 GM/HA) of 20% and a plant response (JIMSONWEED; PREEMERGENCE 0064 GM/HA) of 0%. It also gave a plant response (JIMSONWEED; PREEMERGENCE 0125 GM/HA) of 0%, a plant response (JIMSONWEED; PREEMERGENCE 0250 GM/HA) of 80% and a plant response (JIMSONWEED; PREEMERGENCE 0500 GM/HA) of 30%.
